Measured values as given in patent US8133905B2, “Biphenyl compounds useful as muscarinic receptor antagonists” (Theravance, Inc., priority 2005, dated 2012).
Where a name gives a salt, the structure may show the parent alone.

Experiment: Dynamic moisture sorption (DMS) assessment
Type: physicochemical
Conditions: exposed to up to 90% RH
Method: A dynamic moisture sorption (DMS) assessment (also known as a moisture sorption-desorption profile) was performed for samples of the crystalline diacetate salt using a VTI atmospheric microbalance, SGA-100 system (VTI Corp., Hialeah, Fla. 33016). A sample size of approximately 10 mg was used and the humidity was set at the ambient value at the start of the analysis. A typical DMS analysis consisted of three scans: ambient to 2% relative humidity (RH), 2% RH to 90% RH, 90% RH to 5% RH at a scan rate of 5% RH/step. The mass was measured every two minutes and the RH was changed to the next value (+/−5% RH) when the mass of the sample was stable to within 0.01% for 5 consecutive points.

| Structure (SMILES) | weight gain in DMS trace (reversible sorption/desorption profile) |
| --- | --- |
| CN(CCN1CCC(OC(=O)Nc2ccccc2-c2ccccc2)CC1)C(=O)c1cccc(C(=O)NCCNCc2ccc(O)cc2)c1 [crystalline diacetate salt, biphenyl-2-ylcarbamic acid 1-[2-({3-[2-(4-hydroxybenzylamino)ethylcarbamoyl]benzoyl}methylamino)ethyl]piperidin-4-yl ester] | less than 18% |
| CN(CCN1CCC(OC(=O)Nc2ccccc2-c2ccccc2)CC1)C(=O)c1cccc(C(=O)NCCNCc2ccc(O)cc2)c1 [crystalline dipropionate salt, Biphenyl-2-ylcarbamic Acid 1-[2-({3-[2-(4-Hydroxybenzylamino)ethylcarbamoyl]benzoyl}methylamino)ethyl]piperidin-4-yl Ester] | less than 11% |
| CN(CCN1CCC(OC(=O)Nc2ccccc2-c2ccccc2)CC1)C(=O)c1cccc(C(=O)NCCNCc2ccc(O)cc2)c1 [crystalline monooxalate salt, Biphenyl-2-ylcarbamic Acid 1-[2-({3-[2-(4-Hydroxybenzylamino)ethylcarbamoyl]benzoyl}methylamino)ethyl]piperidin-4-yl Ester] | less than 14% |
